In patent US9884806B2, “Cyclic vinylogous amides as bromodomain inhibitors” (ICAHN SCHOOL OF MEDICINE AT MOUNT SINAI, priority 2013, dated 2018) one finds IC50 data, which are given here for 31 molecules.

For experiment [1], the target named is T1, first bromodomain (BrD1) of human BRD4 (Homo sapiens, UniProt O60885).
T1 construct: the first bromodomain (BrD1) of human BRD4; poly-His (cleaved yes); made in house
Nature of the experiment: Fluorescence anisotropy binding assay (competition with FITC-labeled MS417 probe). To be noted: FITC-MS417 probe 80 nM, PBS pH 7.4, 1 hour, 25° C., read-out: BRD4_1 IC50. The protocol: Fluorescence Anisotropy Binding Assay
Expression and purification of the first bromodomain (BrD1) of human BRD4 in poly-His tag form was performed using a procedure described in the literature [See Zeng et al. Structure 16, 643-652 (2008) and Zhang et al., J Biol Chem 287, 28840-28851 (2012).] The protein was purified by using affinity chromatography on a nickel-IDA column (Invitrogen), followed by the removal of poly-His tag by thrombin cleavage.
Binding affinity of the newly synthesized compounds to the BRD4 BrD1 was assessed in a fluorescence anisotropy assay using a fluorescein isothiocyanate (FITC)-labeled MS417 as an assay probe (Zhang et al. 2008 op.cit.). Competition binding was performed with a BrD protein (0.25 to 1 μM) and the fluorescent probe (80 nM), and increasing concentration of unlabeled competing ligand in a PBS buffer (pH 7.4) in total volume of 80 μL. Measurements were obtained after 1 hour incubation of the fluorescent ligand and the protein at 25° C. with Safire 2 microplate reader (Tecan). In the assay, fluorescent ligand concentration was ≦2Kd, and protein concentration was set at which 50-80% of fluorescent ligand is bound. Dissociation constant of a competing ligand was calculated with the correction to Cheng-Prussoff equation introduced by Nicolovska-Coleska and colleagues [Nikolovska-Coleska, Z. et al., Anal Biochem 332, 261-273 (2004). Assuming one-site competitive binding model, the equation used to calculate Ki's from IC50 values recovered from fitting data using Prism:
[formula] where [I50] is the concentration of free inhibitor at 50% inhibition, [L50], the concentration of free labeled ligand at 50% inhibition, and [P0], concentration of free protein at 0% inhibition. Note that Kd for each protein-probe pair is the limit of resolvable Ki in a competition assay.
In general terms: Fluorescence polarisation rises when a labelled molecule tumbles more slowly, as on binding a larger partner.

The target in experiment [2] is T2, BRD4_2 (Homo sapiens, UniProt O60885).
T2 construct: contains two tandem bromodomains (BrD1 and BrD2)
Nature of the experiment: Fluorescence anisotropy binding assay (competition with FITC-labeled MS417 probe), BRD4_2. To be noted: FITC-MS417 probe 80 nM, PBS pH 7.4, 1 hour, 25° C.

In general, IC50 refers to the midpoint of a concentration-inhibition curve.

Take `CC1=C(Nc2ccc(C(=O)Nc3cccc(C)c3)c(Cl)c2)CCC1=O` [Example 04-50, 2-chloro-4-((2-methyl-3-oxocyclopent-1-en-1-yl)amino)-N-(m-tolyl)benzamide]: the IC50 in experiment [1] and in experiment [2] was greater than 10 µM each time.

Turning to `CC1=C(Nc2ccc(C(=O)Nc3ccc(C)cc3)c(Cl)c2)CCC1=O` [Example 04-51, 2-chloro-4-((2-methyl-3-oxocyclopent-1-en-1-yl)amino)-N-(p-tolyl)benzamide], the IC50 in experiment [1] and in experiment [2] was greater than 10 µM each time.

As for `CC1=C(Nc2ccc(C(=O)Nc3cccc(F)c3)c(Cl)c2)CCC1=O` [Example 04-52, 2-chloro-N-(3-fluorophenyl)-4-((2-methyl-3-oxocyclopent-1-en-1-yl)amino)-benzamide], the IC50 in experiment [1] and in experiment [2] was greater than 10 µM in each case.

Regarding `CNC(=O)c1ccc(NC2=C(C)C(=O)CC2)c(OC)c1` [Example 04-53, 3-methoxy-N-methyl-4-((2-methyl-3-oxocyclopent-1-en-1-yl)amino)benzamide], the half-maximal inhibitory concentration (IC50) in experiment [1] and in experiment [2] was 1 to 10 µM throughout.

For the molecule `COc1cc(C(=O)NC2CCCCC2)ccc1NC1=C(C)C(=O)CC1` [Example 04-54, N-cyclohexyl-3-methoxy-4-((2-methyl-3-oxocyclopent-1-en-1-yl)amino)-benzamide], the IC50 in experiment [1] and in experiment [2] was 1 to 10 µM each time.

Consider `COc1cc(C(=O)Nc2cccc3ccccc23)ccc1NC1=C(C)C(=O)CC1` [Example 04-55, 3-methoxy-4-((2-methyl-3-oxocyclopent-1-en-1-yl)amino)-N-(naphthalen-1-yl)-benzamide], for which the half-inhibitory concentration (IC50) in experiment [1] and in experiment [2] was 1 to 10 µM each time.

On to `COc1cc(C(=O)Nc2ccccc2)ccc1NC1=C(C)C(=O)CC1` [Example 04-56, 3-methoxy-4-((2-methyl-3-oxocyclopent-1-en-1-yl)amino)-N-phenylbenzamide], for which the concentration for half-maximal inhibition (IC50) in experiment [1] and in experiment [2] was 1 to 10 µM throughout.

`COc1ccccc1NC(=O)c1ccc(NC2=C(C)C(=O)CC2)c(OC)c1` [Example 04-57, 3-methoxy-N-(2-methoxyphenyl)-4-((2-methyl-3-oxocyclopent-1-en-1-yl)amino)-benzamide]: the 50% inhibitory concentration (IC50) in experiment [1] and in experiment [2] was 1 to 10 µM each time.

`COc1cccc(NC(=O)c2ccc(NC3=C(C)C(=O)CC3)c(OC)c2)c1` [Example 04-58, 3-methoxy-N-(3-methoxyphenyl)-4-((2-methyl-3-oxocyclopent-1-en-1-yl)amino)-benzamide]: the half-maximal inhibitory concentration (IC50) in experiment [1] and in experiment [2] was 1 to 10 µM throughout.

Consider `COc1ccc(NC(=O)c2ccc(NC3=C(C)C(=O)CC3)c(OC)c2)cc1` [Example 04-59, 3-methoxy-N-(4-methoxyphenyl)-4-((2-methyl-3-oxocyclopent-1-en-1-yl)amino)-benzamide], for which the IC50 in experiment [1] and in experiment [2] was 1 to 10 µM in each case.

In the case of `COc1cc(C(=O)Nc2ccccc2C)ccc1NC1=C(C)C(=O)CC1` [Example 04-60, 3-methoxy-4-((2-methyl-3-oxocyclopent-1-en-1-yl)amino)-N-(o-tolyl)benzamide], the IC50 in experiment [1] and in experiment [2] was 1 to 10 µM in each case.

On to `COc1cc(C(=O)Nc2cccc(C)c2)ccc1NC1=C(C)C(=O)CC1` [Example 04-61, 3-methoxy-4-((2-methyl-3-oxocyclopent-1-en-1-yl)amino)-N-(m-tolyl)benzamide], for which the IC50 in experiment [1] and in experiment [2] was 1 to 10 µM in each case.

As to `COc1cc(C(=O)Nc2ccc(C)cc2)ccc1NC1=C(C)C(=O)CC1` [Example 04-62, 3-methoxy-4-((2-methyl-3-oxocyclopent-1-en-1-yl)amino)-N-(p-tolyl)benzamide], the IC50 in experiment [1] and in experiment [2] was 1 to 10 µM throughout.

`CNC(=O)c1ccc(NC2=C(C)C(=O)CC2)cc1OC` [Example 04-65]: the IC50 in experiment [1] and in experiment [2] was 1 to 10 µM throughout.

Take `COc1cc(NC2=C(C)C(=O)CC2)ccc1C(=O)NC1CCCCC1` [Example 04-66, N-cyclohexyl-2-methoxy-4-((2-methyl-3-oxocyclopent-1-en-1-yl)amino)-benzamide]: the IC50 in experiment [1] and in experiment [2] was 1 to 10 µM throughout.

`COc1cc(NC2=C(C)C(=O)CC2)ccc1C(=O)Nc1cccc2ccccc12` [Example 04-67, 2-methoxy-4-((2-methyl-3-oxocyclopent-1-en-1-yl)amino)-N-(naphthalen-1-yl)benzamide]: the half-maximal inhibitory concentration (IC50) in experiment [1] was less than 1 µM; in experiment [2] it was greater than 10 µM.

Regarding `COc1cc(NC2=C(C)C(=O)CC2)ccc1C(=O)Nc1ccccc1` [Example 04-68, 2-methoxy-4-((2-methyl-3-oxocyclopent-1-en-1-yl)amino)-N-phenylbenzamide], the IC50 in experiment [1] and in experiment [2] was 1 to 10 µM each time.

Turning to `COc1ccccc1NC(=O)c1ccc(NC2=C(C)C(=O)CC2)cc1OC` [Example 04-69, 2-methoxy-N-(2-methoxyphenyl)-4-((2-methyl-3-oxocyclopent-1-en-1-yl)amino)-benzamide], the IC50 in experiment [1] is less than 1 µM; in experiment [2], greater than 10 µM.

Turning to `COc1cccc(NC(=O)c2ccc(NC3=C(C)C(=O)CC3)cc2OC)c1` [Example 04-70, 2-methoxy-N-(3-methoxyphenyl)-4-((2-methyl-3-oxocyclopent-1-en-1-yl)amino)-benzamide], the IC50 in experiment [1] and in experiment [2] was 1 to 10 µM in each case.

For `COc1ccc(NC(=O)c2ccc(NC3=C(C)C(=O)CC3)cc2OC)cc1` [Example 04-71, 2-methoxy-N-(4-methoxyphenyl)-4-((2-methyl-3-oxocyclopent-1-en-1-yl)amino)-benzamide], the concentration for half-maximal inhibition (IC50) in experiment [1] and in experiment [2] was 1 to 10 µM throughout.

`COc1cc(NC2=C(C)C(=O)CC2)ccc1C(=O)Nc1ccccc1C` [Example 04-72, 2-methoxy-4-((2-methyl-3-oxocyclopent-1-en-1-yl)amino)-N-(o-tolyl)benzamide]: the IC50 is less than 1 µM in experiment [1] and 1 to 10 µM in experiment [2].

Take `COc1cc(NC2=C(C)C(=O)CC2)ccc1C(=O)Nc1cccc(C)c1` [Example 04-73, 2-methoxy-4-((2-methyl-3-oxocyclopent-1-en-1-yl)amino)-N-(m-tolyl)benzamide]: the IC50 in experiment [1] and in experiment [2] was 1 to 10 µM in each case.

Turning to `COc1cc(NC2=C(C)C(=O)CC2)ccc1C(=O)Nc1ccc(C)cc1` [Example 04-74, 2-methoxy-4-((2-methyl-3-oxocyclopent-1-en-1-yl)amino)-N-(p-tolyl)benzamide], the IC50 in experiment [1] and in experiment [2] was 1 to 10 µM each time.

For the molecule `CNC(=O)c1ccc(NC2=C(C)C(=O)CC2)c(C)c1` [Example 04-77, N,3-dimethyl-4-((2-methyl-3-oxocyclopent-1-en-1-yl)amino)benzamide], the IC50 is 1 to 10 µM in experiment [1] and greater than 10 µM in experiment [2].

Regarding `CC1=C(Nc2ccc(C(=O)NC3CCCCC3)cc2C)CCC1=O` [Example 04-78, N-cyclohexyl-3-methyl-4-((2-methyl-3-oxocyclopent-1-en-1-yl)amino)benzamide], the IC50 in experiment [1] and in experiment [2] was 1 to 10 µM throughout.

Consider `CC1=C(Nc2ccc(C(=O)Nc3cccc4ccccc34)cc2C)CCC1=O` [Example 04-79, 3-methyl-4-((2-methyl-3-oxocyclopent-1-en-1-yl)amino)-N-(naphthalen-1-yl)benzamide], for which the IC50 in experiment [1] and in experiment [2] was 1 to 10 µM each time.

As to `CC1=C(Nc2ccc(C(=O)Nc3ccccc3)cc2C)CCC1=O` [Example 04-80, 3-methyl-4-((2-methyl-3-oxocyclopent-1-en-1-yl)amino)-N-phenylbenzamide], the concentration for half-maximal inhibition (IC50) in experiment [1] and in experiment [2] was 1 to 10 µM throughout.

Turning to `COc1ccccc1NC(=O)c1ccc(NC2=C(C)C(=O)CC2)c(C)c1` [Example 04-81, N-(2-methoxyphenyl)-3-methyl-4-((2-methyl-3-oxocyclopent-1-en-1-yl)amino)-benzamide], the IC50 in experiment [1] and in experiment [2] was 1 to 10 µM each time.

On to `COc1cccc(NC(=O)c2ccc(NC3=C(C)C(=O)CC3)c(C)c2)c1` [Example 04-82, N-(3-methoxyphenyl)-3-methyl-4-((2-methyl-3-oxocyclopent-1-en-1-yl)amino)-benzamide], for which the IC50 in experiment [1] and in experiment [2] was 1 to 10 µM in each case.

On to `COc1ccc(NC(=O)c2ccc(NC3=C(C)C(=O)CC3)c(C)c2)cc1` [Example 04-83, N-(4-methoxyphenyl)-3-methyl-4-((2-methyl-3-oxocyclopent-1-en-1-yl)amino)-benzamide], for which the IC50 in experiment [1] and in experiment [2] was 1 to 10 µM in each case.

Regarding `CC1=C(Nc2ccc(C(=O)Nc3ccccc3C)cc2C)CCC1=O` [Example 04-84, 3-methyl-4-((2-methyl-3-oxocyclopent-1-en-1-yl)amino)-N-(o-tolyl)benzamide], the IC50 in experiment [1] and in experiment [2] was 1 to 10 µM throughout.
